The values below come from patent publication US11634384B2, “Prodrugs of phenolic TRPV1 agonists” (Concentric Analgesics, Inc., priority 2014, dated 2023).

Structures are written as SMILES. Where two headings read alike, the source gives them in different places.

The conditions of data set [1]: comparison value; cited from earlier work.
Data set [2] in a line: In vitro (pH stability) assay: intramolecular cyclization-release of capsaicin. It is filed as physicochemical. On the procedure:
These compounds are examples of pH activated prodrugs whereby upon exposure to a specific pH, the half-life of the intramolecular cyclization-release reaction is determined. As previously described, the intramolecular cyclization-release reaction results in the concomitant formation of a cyclic urea with the release of the parent drug.
Compounds were incubated in the buffer/biological media indicated (TRIS® obtained from Sigma-Aldrich, St. Louis, Mo., USA, Catalog No. T1503). The reactions were conducted at either room temperature or 37° C.

Data set [3] can be described thus: Solubility assay in DI water. It counts as physicochemical. The conditions noted are these: for solubility at 24 h: thermodynamic from solid, HCl salts, incubated at 50 or 100 mg/mL in DI water, shaking 24 hours, supernatant quantified. On the procedure: In order to determine the aqueous solubility of the compounds described herein, the HCl salts of the following compounds were incubated at either 50 or 100 mg/mL in DI water followed by shaking for 24 hours. The solutions were then centrifuged and visually inspected for insoluble material. In all cases, no insoluble material was observed.

Data set [4] deals with T1, TRPV receptor (Rattus norvegicus, UniProt O35433).
T1 construct: purchased Eurofins, Panlabs/Cerep 286810
T1 sequence (O35433 whole entry): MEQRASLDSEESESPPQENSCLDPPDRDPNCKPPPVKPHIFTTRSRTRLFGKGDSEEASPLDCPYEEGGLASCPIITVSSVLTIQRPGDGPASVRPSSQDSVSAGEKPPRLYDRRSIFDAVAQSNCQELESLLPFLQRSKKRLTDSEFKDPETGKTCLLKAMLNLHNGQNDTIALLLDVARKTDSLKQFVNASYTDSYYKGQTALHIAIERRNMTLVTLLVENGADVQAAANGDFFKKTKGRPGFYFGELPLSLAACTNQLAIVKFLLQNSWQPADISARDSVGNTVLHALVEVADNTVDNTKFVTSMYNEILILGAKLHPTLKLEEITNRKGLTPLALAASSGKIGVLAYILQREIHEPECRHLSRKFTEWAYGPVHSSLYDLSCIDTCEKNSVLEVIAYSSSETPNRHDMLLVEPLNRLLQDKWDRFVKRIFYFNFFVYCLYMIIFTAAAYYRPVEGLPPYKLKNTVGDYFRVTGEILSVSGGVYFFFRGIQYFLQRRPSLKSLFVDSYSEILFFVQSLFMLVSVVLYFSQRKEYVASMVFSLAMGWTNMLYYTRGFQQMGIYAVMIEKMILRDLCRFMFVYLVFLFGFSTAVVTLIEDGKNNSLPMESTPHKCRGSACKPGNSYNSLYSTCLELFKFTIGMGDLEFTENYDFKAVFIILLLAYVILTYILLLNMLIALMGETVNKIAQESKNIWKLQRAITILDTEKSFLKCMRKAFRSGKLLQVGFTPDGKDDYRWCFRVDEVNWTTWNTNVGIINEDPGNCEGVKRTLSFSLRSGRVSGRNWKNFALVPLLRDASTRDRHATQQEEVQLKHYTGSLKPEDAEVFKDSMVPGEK
Description: biochemical. It counts as binding.

Data set [5] deals with T1, TRPV receptor. The conditions noted are these: historical controls; read-out: historical control value; cited from earlier work.
Where [6] appears, read: pH 7.4, pH = ~7.4 (0.3M aqueous tris buffer), 20° C., read-out: Intramolecular Cyclization-Release Half-life (T1/2).
[7] abbreviates: pH 7.4, pH = ~7.4 (1.0M aqueous tris buffer), 37° C., read-out: Intramolecular Cyclization-Release Half-life (T1/2).

By solubility is commonly meant how much of the substance goes into solution per volume. One may read the inhibition as the drop in the measured response relative to a control, in per cent.

Regarding `COc1cc(CNC(=O)CCCCC=CC(C)C)ccc1O` [Capsaicin, 8-methyl-N-vanillyl-6-nonenamide], the “aqueous solubility of capsaicin in water” value in data set [1] is on record as roughly 0.064 mg/mL.

In the case of `COc1cc(CNC(=O)CCCC/C=C/C(C)C)ccc1OC(=O)N(C)CCN` [Compound 1, (E)-2-methoxy-4-((8-methylnon-6-enamido)methyl)phenyl (2-aminoethyl)(methyl)carbamate], the half-life in data set [2] (setting [6]) is roughly 24.1 h.

With `CNCCN(C)C(=O)Oc1ccc(CNC(=O)CCCC/C=C/C(C)C)cc1OC` [Compound 2, (E)-2-methoxy-4-((8-methylnon-6-enamido)methyl)phenyl methyl(2-(methylamino)ethyl)carbamate], the half-life in data set [2] (setting [6]) was roughly 3.2 h.

Turning to `COc1cc(CNC(=O)CCCC/C=C/C(C)C)ccc1OC(=O)N1CCCCC1CN` (stereo not drawn) [Compound 3, (E)-2-methoxy-4-((8-methylnon-6-enamido)methyl)phenyl 2-(aminomethyl)piperidine-1-carboxylate], the “increase in aqueous solubility from the parent compound, capsaicin” value in data set [3] (hydrogen chloride salts vs capsaicin) is greater than 780 fold. In data set [3], the solubility at 24 h was greater than 100 mg/mL. Further, the half-life in data set [2] (setting [6]) was roughly 0.527 h; in data set [2] (setting [7]), roughly 0.215 h.

Take `COc1cc(CNC(=O)CCCC/C=C/C(C)C)ccc1OC(=O)N1CCCC1CN` (stereo not drawn) [Compound 4, (E)-2-methoxy-4-((8-methylnon-6-enamido)methyl)phenyl 2-(aminomethyl)pyrrolidine-1-carboxylate]: the half-life in data set [2] (setting [6]) was roughly 295 h.

For the molecule `COc1cc(CNC(=O)CCCC/C=C/C(C)C)ccc1OC(=O)N(CCN)CCN` [Compound 5, (E)-2-methoxy-4-((8-methylnon-6-enamido)methyl)phenyl bis(2-aminoethyl)carbamate], in data set [3], the solubility at 24 h is greater than 100 mg/mL. Also, the half-life in data set [2] (setting [6]) is roughly 1.18 h; in data set [2] (setting [7]), roughly 0.412 h.

For the molecule `COc1cc(CNC(=O)CCCC/C=C/C(C)C)ccc1OC(=O)N(C)CCCN` [Compound 6, (E)-2-methoxy-4-((8-methylnon-6-enamido)methyl)phenyl (3-aminopropyl)(methyl)carbamate], the half-life in data set [2] (setting [6]) was roughly 739 h.

Consider `CNCC1CCCCN1C(=O)Oc1ccc(CNC(=O)CCCC/C=C/C(C)C)cc1OC` (stereo not drawn) [Compound 7, (E)-2-methoxy-4-((8-methylnon-6-enamido)methyl)phenyl 2-((methylamino)methyl)piperidine-1-carboxylate], for which the solubility at 24 h in data set [3] is greater than 50 mg/mL. In addition, in data set [2], the “intramolecular cyclization-release half-life, order of magnitude in words” value was “minutes”. In addition, in data set [2] (pH 7.4), the “Intramolecular Cyclization-Release Half-life (T1/2)” value is reported as roughly 3.1 min. In data set [2] (pH 7.4, Intramolecular Cyclization-Release Half-life (T1/2)), this molecule returned a half-life of roughly 0.0733 h.

`COc1cc(CNC(=O)CCCC/C=C/C(C)C)ccc1OC(=O)N1CCNCC1` [Compound 8, (E)-2-methoxy-4-((8-methylnon-6-enamido)methyl)phenyl piperazine-1-carboxylate] came in with an inhibition at 100 µM against TRPV receptor [4] (@ 100 uM) of 23%. Moreover, the IC50 on TRPV receptor [4] (read-out: IC50) is greater than 100000 nM. Further, in data set [2] (pH 7.4, pH = ~7.4 (0.3M aqueous tris buffer), 20° C., conversion to capsaicin over 2 weeks, read-out: Intramolecular Cyclization-Release Half-life (T1/2)), the half-life at 2 weeks is greater than 336 h.

As for `C=C(C)[C@]12C[C@@H](C)[C@@]34O[C@](Cc5ccccc5)(O[C@@H]1[C@@H]3C=C(COC(=O)Cc1ccc(O)c(OC)c1)C[C@]1(O)C(=O)C(C)=C[C@@H]41)O2` [Resiniferatoxin, reference compound], the IC50 against TRPV receptor [4] was 0.16 nM; on TRPV receptor [5] it was 0.46 nM.
